# Measurements reported in patent US9249159B2, “Composition for treating hepatitis C virus, regulating phosphorylation of replicase” (Industry-Academic Cooperation Foundation, Yonsei University, priority 2011, dated 2016).
# Assays:
# [1] = system: genotype 1b HCV subgenomic replicon (R-1 cell line); assay: HCV replication (HCV RNA by real-time RT-PCR, NS5B protein by Western blot) in R-1 subgenomic replicon cells; format: cell-based, hepatitis C virus genotype 1b; conditions: R-1 cell
# Text: In order to check a PRK2 phosphorylation inhibition effect of the novel inhibitors obtained in Example 1, R-1 cell line harboring HCV subgenomic replicons was used.
# The R-1 cell line was comprised of cis-acting RNA elements of 5′ and 3′-end untranslated regions (UTR) essential for replication of HCV RNA, a selection marker inserted to select a replicated RNA into a portion from which a structural protein coding site was removed, and a non-structural protein (NS3-NS5B)-coding gene required for replication. In the replicon, the selection marker was expressed by the HCV 5′-UTR and internal ribosome entry site (IRES) as a part of a coding gene of a core protein as a structural protein and capsid protein, and HCV non-structural proteins were expressed by IRES of EMCV. In order to obtain replicon cells, a HCV subgenomic replicon RNA was obtained by means of in vitro transcription by using a T7 RNA polymerase, free ribonucleotide was removed by using a spin column, and introduced into a hepatocellular carcinoma cell line by electroporation. In the presence of G418, a stable cell line, i.e. a cell line showing a resistance to G418 through replication of HCV subgenome, was obtained. Expression of the HCV non-structural proteins in this cell line was analyzed by Western blot to confirm that replication was being carried out, and the R-1 cell line was constructed. It was observed that an HCV RNA copy number was about 10^7 copies/mL by a quantitative real-time PCR analysis using a TaqMan probe. The R-1 cell line was a cell line in which HCV RNA replication was being carried out, and thus it could be used to evaluate an HCV replication inhibition effect of a PRK2 activity inhibitor.
# Then, after the R-1 cell line was treated with each of 5 screened PRK2 inhibitors, HA1077 currently and clinically used as a PRK2 activity inhibitor, and Y27632 having a PRK2 activity inhibition effect at a final concentration of 20 μM for 48 hours, levels of HCV NS5B protein and HCV RNA in cell lysates (50 μg) were analyzed by Western blot and real-time RT-PCR.
# (§1) To do so, after the two cell lines were treated with the compound #17 at higher concentrations (60 and 100 μM) than 20 μM for 48 hours, an HCV RNA genome level was checked by a real-time RT-PCR analysis. A value was a mean±standard deviation (SD) of three independent measurements. HCV RNA titer was quantified by real-time PCR analysis. Three independent experiments were performed in triplicate.
# 5 derivatives (#18 to #22: refer to FIG. 2) were produced based on the inhibitor #17 showing the best effect. After the R-1 cell line was treated with each of these inhibitors or HA1077 and Y27632 at a final concentration of 20 μM for 48 hours, an HCV RNA genome level was checked by a real-time RT-PCR analysis and expressed in % with respect to a control treated with DSMO. Three independent experiments were conducted repeatedly three times. Data were expressed by mean±SD of the three experiments.
# (§2) Total RNA was extracted from R-1 or HCV (JFH1)-infected cells using TRIzol LS reagent (Invitrogen, Carlsbad, Calif., USA) and purified according to the manufacturer's instructions. HCV RNA levels were quantified by RT-PCR using a primer pair and TaqMan probe targeting a region within the HCV 5′-UTR as described previously. Cellular glyceraldehyde-3-phosphate dehydrogenase was used as an internal control. Assays were performed using the DyNAmo Probe 2-step qRT-PCR Kit (Finnzymes, Espoo, Finland) and a CHROMO4 continuous fluorescence detector (Bio-Rad, Hercules, Calif., USA), according to the manufacturer's instructions.
# Therefore, anti-HCV activity of 17-DMAG in the R-1 cell was tested at a level lower than 50 nM. To do so, the R-1 cell was treated with a vehicle (0.25% DMSO) or 17-DMAG for 72 hours and the cell lysates (50 μg) and antibodies specific to the proteins were immunoblotted to measure levels of the proteins. An anti-α-tubulin antibody (lower end panel) was used as an internal loading control. […]
# [2] = system: genotype 2a HCV (JFH1)-infected Huh7 cells; assay: HCV RNA level in Huh7 cells infected with HCV (JFH1); format: cell-based, hepatitis C virus genotype 2a; conditions: JFH1-infected Huh7 cell, 500 nM, 72 hours
# Procedure: as §1
# Full-length, infectious HCV RNA of the genotype 2a HCV clone JFH1 was prepared by in vitro transcription using the MEGAscript T7 kit (Ambion, Austin, Tex., USA) and electroporated into Huh7 cells as described previously. Briefly, at 72 h post electroporation, culture medium was collected, cleared by low-speed centrifugation, and passed through a 0.45-μm filter (Millipore, Billerica, Mass., USA) before being used for infection of Huh7 cells. Cells were infected with HCV at a multiplicity of infection of 0.3 by adsorption for 3 h with periodic rocking, then washed three times with phosphate-buffered saline (PBS) and maintained in complete DMEM. […]
# as §2, with “Cellular glyceraldehyde-3-phosphate dehydrogenase was used as an internal control.” left out
# In order to analyze whether or not 17-DMAG can inhibit replication in a cell infected with HCV, an experiment was carried out with the genotype 2a HCV infectious clone JFH1, which produces infectious virions in Huh7 or Huh7-derived cell lines. […] After 72 hours, total cellular RNA was extracted and HCV remaining in the infected cell was analyzed by quantitative RT-PCR.
# R-1 cell = assay: Cytotoxicity / cell viability in R-1 cell; format: cell-based, human; conditions: R-1 cell versus parental Huh7, 72 hours
# Procedure: Cytotoxicity of 17-DMAG was measured by using a reagent MTS [3-(4,5-dimethylthiazol-2-yl)-5-(3-carboxylmethoxyphenyl)-2-(4-sulfophenyl)-2H-tetrazolium] (Promega, Madison, Wis., USA) according to the protocols of the manufacturer. The experiment was carried out as follows.
# Huh7 or R-1 cells (2×10^4 cell/well) were seeded in a 96-well plate and treated with 17-DMAG at different concentrations for 72 hours. Then, the culture medium was removed and a MTS substrate dissolved in the culture medium containing 5% FBS was added to each well of the plate. The cells were cultured at 37° C. for 1 hour, and absorbance at 490 nm was read in a 96-well micro plate automatic reading system using GloMax-Multi detection system (Promega).
# An experiment was carried out to check whether or not 17-DMAG inhibited virus RNA replication in an R-1 cell in which autonomous replication of a genotype 1b HCV subgenomic replicon RNA was maintained. Before antiviral activity of 17-DMAG was evaluated, an MTS assay was carried out to evaluate whether or not the drug interfered with cell viability. To be specific, the R-1 cell loaded with a selective HCV subgenomic replicon (upper diagram) and its parental cell line Huh7 were treated with 17-DMAG at a certain concentration for 72 hours, and cell viability was evaluated by the MTS assay.
smiles,measurement,setting,value
"CO[C@H]1/C=C\C=C(/C)C(=O)NC2=CC(=O)C(NCCN(C)C)=C(C[C@@H](C)C[C@H](OC)[C@H](O)[C@@H](C)/C=C(\C)[C@@H]1OC(N)=O)C2=O [17-DMAG, 17-(dimethylaminoethylamino)-17-demethoxygeldanamycin]",decrease in viral RNA,"[1]; 50 nM 17-DMAG combined with 100 IU/mL IFN-α, 72 hours",hundredfold
same,inhibition of HCV RNA replication,"[1]; 50 nM, 72 hours",about 50%
same,inhibition of virus replication,[1]; 17-DMAG 50 nM combined with HA1077 20 μM,approximately 80%
same,decrease of level of viral RNA,[2],about 87%
same,sensitivity of cell viability (MTS assay),R-1 cell,more sensitive to 17-DMAG than the parental cell line Huh7
